Experimental data reported in patent US12479847B2 (DANA-FARBER CANCER INSTITUTE, INC., priority 2019, dated 2025).
Read-outs that look alike come from different tables or passages of the source.

Legend:
Assay in all cases: KINOMEscan (ScanMAX) kinase profiling
Type in all cases: binding
[1] = target: T1, panel of 468 kinases (Homo sapiens, UniProt O14730); conditions: RIOK3; 1 μM; read-out: % control
T1 construct: purchased KINOMEscan (ScanMAX) service
T1 sequence (O14730 1-519): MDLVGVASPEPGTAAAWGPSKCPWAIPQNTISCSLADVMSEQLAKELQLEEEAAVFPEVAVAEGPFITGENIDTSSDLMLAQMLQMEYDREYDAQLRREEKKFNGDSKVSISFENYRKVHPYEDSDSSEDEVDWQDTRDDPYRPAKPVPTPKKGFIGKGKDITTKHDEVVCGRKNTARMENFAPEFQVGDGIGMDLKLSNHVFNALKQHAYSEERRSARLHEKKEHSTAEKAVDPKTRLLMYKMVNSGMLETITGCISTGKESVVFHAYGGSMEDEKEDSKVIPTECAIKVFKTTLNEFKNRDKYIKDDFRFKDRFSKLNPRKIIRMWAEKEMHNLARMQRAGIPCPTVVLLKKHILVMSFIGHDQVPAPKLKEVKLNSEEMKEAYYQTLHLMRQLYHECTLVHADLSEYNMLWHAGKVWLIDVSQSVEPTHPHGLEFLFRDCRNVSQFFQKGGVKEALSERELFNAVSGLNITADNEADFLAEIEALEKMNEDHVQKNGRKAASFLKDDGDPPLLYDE

[2] = target: T2, panel of 468 kinases (Homo sapiens, UniProt O95835); conditions: LATS1; 1 μM; read-out: % control
T2 construct: purchased KINOMEscan (ScanMAX) service
T2 sequence (O95835 1-1130): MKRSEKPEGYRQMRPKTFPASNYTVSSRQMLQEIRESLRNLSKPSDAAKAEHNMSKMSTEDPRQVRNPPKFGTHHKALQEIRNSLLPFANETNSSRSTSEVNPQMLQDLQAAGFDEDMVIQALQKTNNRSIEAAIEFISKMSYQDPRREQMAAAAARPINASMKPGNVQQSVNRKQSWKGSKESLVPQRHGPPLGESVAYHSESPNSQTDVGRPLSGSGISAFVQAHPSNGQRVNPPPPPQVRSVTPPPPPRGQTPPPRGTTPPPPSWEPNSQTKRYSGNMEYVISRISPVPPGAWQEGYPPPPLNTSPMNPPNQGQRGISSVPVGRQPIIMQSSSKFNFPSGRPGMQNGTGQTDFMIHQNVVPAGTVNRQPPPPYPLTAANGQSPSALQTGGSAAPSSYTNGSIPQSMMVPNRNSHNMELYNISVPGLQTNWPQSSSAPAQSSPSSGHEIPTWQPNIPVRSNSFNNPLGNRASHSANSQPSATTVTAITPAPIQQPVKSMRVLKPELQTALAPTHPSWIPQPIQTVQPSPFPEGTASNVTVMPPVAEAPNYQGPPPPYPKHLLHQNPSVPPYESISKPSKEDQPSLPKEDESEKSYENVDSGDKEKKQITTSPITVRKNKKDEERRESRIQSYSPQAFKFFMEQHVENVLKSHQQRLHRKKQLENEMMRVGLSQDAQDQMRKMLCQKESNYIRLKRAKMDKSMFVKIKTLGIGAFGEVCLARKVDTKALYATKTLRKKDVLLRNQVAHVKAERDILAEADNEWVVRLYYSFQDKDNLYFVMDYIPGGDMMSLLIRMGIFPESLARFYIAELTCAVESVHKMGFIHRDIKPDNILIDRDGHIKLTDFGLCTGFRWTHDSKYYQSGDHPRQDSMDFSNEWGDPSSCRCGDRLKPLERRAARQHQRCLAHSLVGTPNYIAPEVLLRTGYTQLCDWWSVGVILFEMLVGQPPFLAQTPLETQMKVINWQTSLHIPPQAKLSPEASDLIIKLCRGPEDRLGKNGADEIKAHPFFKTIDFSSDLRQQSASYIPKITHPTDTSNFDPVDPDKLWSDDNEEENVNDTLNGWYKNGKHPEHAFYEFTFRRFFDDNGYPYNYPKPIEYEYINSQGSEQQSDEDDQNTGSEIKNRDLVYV

[3] = target: T3, panel of 468 kinases (Homo sapiens, UniProt P19784); conditions: CSNK2A2; 1 μM; read-out: % control
T3 construct: purchased KINOMEscan (ScanMAX) service

[4] = target: T4, panel of 468 kinases (Homo sapiens, UniProt P49674); conditions: CSNK1E; 1 μM; read-out: % control
T4 construct: purchased KINOMEscan (ScanMAX) service

[5] = target: T5, panel of 468 kinases (Homo sapiens, UniProt Q00535); conditions: CDK5; 1 μM; read-out: % control
T5 construct: purchased KINOMEscan (ScanMAX) service

[6] = target: T6, panel of 468 kinases (Homo sapiens, UniProt Q15418); conditions: 1 μM, read-out: % control
T6 construct: purchased KINOMEscan (ScanMAX) service

[7] = target: T7, panel of 468 kinases (Homo sapiens, UniProt Q16584); conditions: MLK3; 1 μM; read-out: % control
T7 construct: purchased KINOMEscan (ScanMAX) service

[8] = target: T8, panel of 468 kinases (Homo sapiens, UniProt Q8N5S9); conditions: CAMKK1; 1 μM; read-out: % control
T8 construct: purchased KINOMEscan (ScanMAX) service
T8 sequence (Q8N5S9 whole entry): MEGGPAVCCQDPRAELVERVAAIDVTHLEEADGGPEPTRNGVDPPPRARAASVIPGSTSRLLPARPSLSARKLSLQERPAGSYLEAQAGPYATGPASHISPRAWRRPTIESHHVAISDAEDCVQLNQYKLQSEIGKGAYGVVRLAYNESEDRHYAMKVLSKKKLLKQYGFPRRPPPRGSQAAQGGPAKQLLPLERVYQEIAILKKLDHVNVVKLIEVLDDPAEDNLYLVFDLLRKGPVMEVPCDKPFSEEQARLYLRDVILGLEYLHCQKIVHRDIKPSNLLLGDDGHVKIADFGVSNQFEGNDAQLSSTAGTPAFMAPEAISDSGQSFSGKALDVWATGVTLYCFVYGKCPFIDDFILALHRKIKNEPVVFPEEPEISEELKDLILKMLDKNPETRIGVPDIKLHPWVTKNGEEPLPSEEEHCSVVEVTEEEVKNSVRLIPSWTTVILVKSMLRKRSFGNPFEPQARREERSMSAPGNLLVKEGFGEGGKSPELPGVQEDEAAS

T6 sequence (Q15418 whole entry): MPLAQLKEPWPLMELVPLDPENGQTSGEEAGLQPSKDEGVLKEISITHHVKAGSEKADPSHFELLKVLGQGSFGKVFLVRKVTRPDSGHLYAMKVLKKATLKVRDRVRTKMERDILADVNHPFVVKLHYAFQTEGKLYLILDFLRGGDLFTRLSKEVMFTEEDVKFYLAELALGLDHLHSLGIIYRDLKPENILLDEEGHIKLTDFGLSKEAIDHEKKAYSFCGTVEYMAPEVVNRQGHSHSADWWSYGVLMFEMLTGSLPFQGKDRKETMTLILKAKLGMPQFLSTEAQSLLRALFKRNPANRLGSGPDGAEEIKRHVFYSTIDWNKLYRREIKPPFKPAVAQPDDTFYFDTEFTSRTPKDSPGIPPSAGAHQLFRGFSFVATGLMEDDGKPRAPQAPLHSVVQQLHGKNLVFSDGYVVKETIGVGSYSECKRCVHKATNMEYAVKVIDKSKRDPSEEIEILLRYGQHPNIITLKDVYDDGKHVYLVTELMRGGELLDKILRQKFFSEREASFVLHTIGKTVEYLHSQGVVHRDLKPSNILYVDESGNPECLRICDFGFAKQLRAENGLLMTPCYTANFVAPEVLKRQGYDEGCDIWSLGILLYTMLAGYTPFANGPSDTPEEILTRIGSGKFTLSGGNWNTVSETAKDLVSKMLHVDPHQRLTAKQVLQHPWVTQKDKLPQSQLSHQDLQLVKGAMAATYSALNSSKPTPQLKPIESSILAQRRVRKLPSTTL
T5 sequence (Q00535 whole entry): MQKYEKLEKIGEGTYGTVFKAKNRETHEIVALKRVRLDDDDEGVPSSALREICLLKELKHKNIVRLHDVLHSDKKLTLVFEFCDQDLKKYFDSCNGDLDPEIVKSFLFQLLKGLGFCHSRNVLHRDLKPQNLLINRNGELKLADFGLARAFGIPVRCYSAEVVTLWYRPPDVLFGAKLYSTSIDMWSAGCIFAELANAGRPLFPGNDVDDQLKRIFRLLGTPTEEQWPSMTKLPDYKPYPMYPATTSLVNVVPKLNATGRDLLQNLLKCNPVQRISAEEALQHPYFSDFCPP
T7 sequence (Q16584 whole entry): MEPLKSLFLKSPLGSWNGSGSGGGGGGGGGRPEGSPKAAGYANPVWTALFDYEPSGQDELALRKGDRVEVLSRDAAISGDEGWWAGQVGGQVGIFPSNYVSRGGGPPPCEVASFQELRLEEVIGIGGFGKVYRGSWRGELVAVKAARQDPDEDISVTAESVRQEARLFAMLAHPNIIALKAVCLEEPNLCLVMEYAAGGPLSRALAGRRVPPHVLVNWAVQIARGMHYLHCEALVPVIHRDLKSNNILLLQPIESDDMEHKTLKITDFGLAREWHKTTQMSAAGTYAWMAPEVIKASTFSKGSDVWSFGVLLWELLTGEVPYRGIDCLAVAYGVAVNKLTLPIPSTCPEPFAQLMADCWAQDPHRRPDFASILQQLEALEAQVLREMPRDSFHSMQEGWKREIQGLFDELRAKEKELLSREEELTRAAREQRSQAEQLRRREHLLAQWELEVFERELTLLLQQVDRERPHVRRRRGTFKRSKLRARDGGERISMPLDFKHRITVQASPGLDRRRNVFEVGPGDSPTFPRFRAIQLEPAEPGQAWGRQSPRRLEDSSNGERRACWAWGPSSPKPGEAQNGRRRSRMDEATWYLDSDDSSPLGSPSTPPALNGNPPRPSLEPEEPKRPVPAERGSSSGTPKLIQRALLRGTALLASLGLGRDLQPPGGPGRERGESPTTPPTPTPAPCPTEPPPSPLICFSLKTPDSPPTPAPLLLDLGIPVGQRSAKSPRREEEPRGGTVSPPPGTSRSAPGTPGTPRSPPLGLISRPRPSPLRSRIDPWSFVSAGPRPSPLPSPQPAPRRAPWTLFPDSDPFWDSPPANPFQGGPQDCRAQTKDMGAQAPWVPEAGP
T3 sequence (P19784 whole entry): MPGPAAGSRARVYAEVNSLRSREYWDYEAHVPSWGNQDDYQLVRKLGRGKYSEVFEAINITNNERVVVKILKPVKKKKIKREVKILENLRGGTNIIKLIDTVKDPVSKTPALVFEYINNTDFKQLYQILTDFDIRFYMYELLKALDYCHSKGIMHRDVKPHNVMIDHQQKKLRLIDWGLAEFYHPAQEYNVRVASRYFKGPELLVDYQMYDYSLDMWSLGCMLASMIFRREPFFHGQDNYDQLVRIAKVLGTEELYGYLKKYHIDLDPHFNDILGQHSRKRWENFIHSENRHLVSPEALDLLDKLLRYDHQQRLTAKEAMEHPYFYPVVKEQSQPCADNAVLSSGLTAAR
T4 sequence (P49674 whole entry): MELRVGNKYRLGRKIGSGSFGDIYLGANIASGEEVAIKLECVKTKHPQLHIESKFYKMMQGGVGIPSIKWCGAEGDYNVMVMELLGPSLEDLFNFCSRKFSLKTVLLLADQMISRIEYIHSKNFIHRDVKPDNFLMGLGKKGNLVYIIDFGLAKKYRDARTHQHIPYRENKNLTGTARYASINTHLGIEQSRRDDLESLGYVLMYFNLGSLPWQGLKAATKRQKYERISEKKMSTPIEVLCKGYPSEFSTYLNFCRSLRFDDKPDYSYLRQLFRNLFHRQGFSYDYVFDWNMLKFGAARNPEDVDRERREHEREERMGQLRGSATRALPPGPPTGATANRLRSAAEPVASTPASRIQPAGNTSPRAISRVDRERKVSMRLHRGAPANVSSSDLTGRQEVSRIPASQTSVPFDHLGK

CNc1nc(Nc2ccc(C(=O)N3CCC(N4CCOCC4)CC3)c3c2OCO3)nc2[nH]cc(Cl)c12 [Compound 75, (7-((5-chloro-4-(methylamino)-7H-pyrrolo[2,3-d]pyrimidin-2-yl)amino)benzo[d][1,3]dioxol-4-yl)(4-morpholinopiperidin-1-yl)methanone]
remaining binding at 1 µM [1]: 28% | remaining binding at 1 µM [2]: 100% | remaining binding at 1 µM [3]: 49% | remaining binding at 1 µM [4]: 30% | remaining binding at 1 µM [5]: 100% | remaining binding at 1 µM ([6]; RSK1(Kin.Dom.1-N-terminal)): 100% | remaining binding at 1 µM ([6]; RSK1(Kin.Dom.2-C-terminal)): 99% | remaining binding at 1 µM [7]: 51% | remaining binding at 1 µM [8]: 95%

CNc1nc(Nc2ccc(S(=O)(=O)N3CCC(N4CCOCC4)CC3)cc2OC)nc2[nH]cc(Cl)c12 [Compound 12, 5-chloro-N2-(2-methoxy-4-((4-morpholinopiperidin-1-yl)sulfonyl)phenyl)-N4-methyl-7H-pyrrolo[2,3-d]pyrimidine-2,4-diamine]
remaining binding at 1 µM [1]: 89% | remaining binding at 1 µM [2]: 100% | remaining binding at 1 µM [3]: 97% | remaining binding at 1 µM [4]: 18% | remaining binding at 1 µM [5]: 100% | remaining binding at 1 µM ([6]; RSK1(Kin.Dom.1-N-terminal)): 100% | remaining binding at 1 µM ([6]; RSK1(Kin.Dom.2-C-terminal)): 100% | remaining binding at 1 µM [7]: 93% | remaining binding at 1 µM [8]: 100%

CNc1nc(Nc2ccc(P3(=O)CCN(C4CCOCC4)CC3)cc2OC)nc2[nH]cc(Cl)c12 [Compound 77, 4-(4-((5-chloro-4-(methylamino)-7H-pyrrolo[2,3-d]pyrimidin-2-yl)amino)-3-methoxyphenyl)-1-(tetrahydro-2H-pyran-4-yl)-1,4-azaphosphinane 4-oxide]
remaining binding at 1 µM [1]: 88% | remaining binding at 1 µM [2]: 100% | remaining binding at 1 µM [3]: 80% | remaining binding at 1 µM [4]: 15% | remaining binding at 1 µM [5]: 100% | remaining binding at 1 µM ([6]; RSK1(Kin.Dom.1-N-terminal)): 100% | remaining binding at 1 µM ([6]; RSK1(Kin.Dom.2-C-terminal)): 64% | remaining binding at 1 µM [7]: 80% | remaining binding at 1 µM [8]: 83%
